The test has as its target T1, delta-opioid receptor (Rattus norvegicus, UniProt P33533).
T1 construct: from tissue; host or cells: forebrain particulate (membrane) preparation of male Wistar rats (animals from Charles River, Kingston, N.Y.)
The test can be described thus: Rat Brain Delta-Opioid Receptor Binding Assay. Details: species or system rat (Wistar). To be noted: rat forebrain homogenate, [3H]DPDPE, 25° C., pH 7.4; read-out: Delta K.

SMILES strings stand for the structures.

Experimental findings from US6306876A, “4-[aryl(8-azabicyclo[3.2.1]octan-3-yl)]aminobenzoic acid derivatives” (priority 2000, dated 2001) are described below.

T1 sequence (P33533 whole entry): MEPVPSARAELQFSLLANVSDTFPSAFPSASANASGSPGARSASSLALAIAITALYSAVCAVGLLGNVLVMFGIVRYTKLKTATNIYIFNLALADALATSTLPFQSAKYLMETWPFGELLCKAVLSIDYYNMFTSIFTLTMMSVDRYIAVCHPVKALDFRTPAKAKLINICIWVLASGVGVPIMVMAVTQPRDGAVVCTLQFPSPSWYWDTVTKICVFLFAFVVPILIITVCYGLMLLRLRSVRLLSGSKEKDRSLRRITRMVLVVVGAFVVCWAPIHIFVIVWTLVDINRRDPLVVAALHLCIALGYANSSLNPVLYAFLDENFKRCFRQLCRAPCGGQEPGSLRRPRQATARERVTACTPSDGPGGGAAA

With `CN1C2CCC1CC(N(c1ccccc1)c1cccc(C(=O)OC(C)(C)C)c1)C2` (stereo not drawn) [Example 38, 1,1-Dimethylethyl 3-[phenyl(endo-8-methyl-8-azabicyclo[3.2.1]octan-3-yl)amino]benzoate], the Ki came out at 459 nM.
